Source: US4000985A, “Azo dyes having a high solubility in petroleum fuels” (Morton-Norwich Products, Inc., priority 1975, dated 1977)

Experiments:
Assay type in all cases: physicochemical
[1] = Storage solubility in xylene at 20°-25° C. and -10° C.
Experimental: The solutions obtained were stored at 20°-25°C. and at -10° C. Where any separation of dye occurred, the dye content of the remaining solution was determined colorimetrically.

[2] = Dissolution of 58% dye in 42% fuel by warming, cooling to 25° C. (six heating/diesel oils); details: 58% by weight dye, warmed, cooled to 25° C.
Experimental: No. 2 Regular Grade Diesel Oil
Each dye-fuel oil mixture was warmed with stirring and then cooled to 25° C.

[3] = Physical state of the isolated dye; details: for Physical State of Dye: after isolation according to Procedure B
Excerpt: alternatively, the crude liquid dye may be taken up with a volatile solvent and the solvent removed during the drying process to yield a non-volatile liquid colorant.

[4] = Storage solubility in No. 1 and No. 2 Heating Oil at ambient temperature and -10° C.
Experimental: The resultant mixtures were stored at ambient temperatures (20° to 25° C.) and at -10° C. Where any separation of dye occurred, the dye content of the remaining solution was determined colorimetrically.

[5] = Dissolution of 58% dye in 42% fuel by warming, cooling to 25° C. (six heating/diesel oils)
[6] = General statements on solubility and dissolution rate in petroleum fuels
[7] = Rate and extent of dissolution in No. 1 and No. 2 Heating Oils at 25° C. (colorimetric); details: for solubility in fuel oils (in words): No. 1 and No. 2 fuel oils; for dissolution in the heating oils: two minutes contact
Experimental: The solubility properties of each of the dyes of Examples 16-41 were evaluated in the fuels No. 1 and No. 2 Heating Oils, respectively. The procedure was as follows:
Where the dyes are solid dyes, excess of pulverized solid dye, far beyond that which would dissolve, i.e., 30 to 35% dye, was added to the respective oils at 25° C. and agitated at constant speed. Samples were removed at 1, 10 and 20 minute intervals, filtered, and the amount of dissolved dye determined colorimetrically.
The tarry non-solid dyes were charged in proportions of 50-60% dye to 50-40% oil rather than 30-35% used for the solid dyes. In fact, it was very difficult to stir the tarry dye-fuel oil mixture at a dye concentration of 50%. Samples for these dyes were taken after 2 minutes. The longer initial time for the tarry dyes was to permit reasonable contact between solvent and the viscous, condensed dye.

[8] = Equilibrium solubility of Solvent Red No. 19 in petroleum fuels (filtrate, colorimetric)
Experimental: Solvent Red No. 19 was subjected to the same solubility test as set forth in Example 14.
In each instance, the precipitated mass was filtered and the dye content of the filtrate was determined colorimetrically.

[9] = No. 1 Heating Oil, 20° C.-25° C. (Table 10)
[10] = No. 1 Heating Oil, -10° C. (Table 10)
[11] = No. 2 Heating Oil, 20° C.-25° C. (Table 11)
[12] = No. 2 Heating Oil, -10° C. (Table 11)
[13] = No. 1 Heating Oil, 20° C.-25° C. (Table 8)
[14] = No. 1 Heating Oil, -10° C. (Table 8)
[15] = No. 2 Heating Oil, 20° C.-25° C. (Table 9)
[16] = No. 2 Heating Oil, -10° C. (Table 9)
[17] = No. 1 Fuel Oil, 1 Minute, 25° C., aminoazotoluene dyes (Table 6)
[18] = No. 1 Fuel Oil, 10 Minutes, 25° C., aminoazotoluene dyes (Table 6)
[19] = No. 1 Fuel Oil, 20 Minutes, 25° C., aminoazotoluene dyes (Table 6)
[20] = No. 2 Fuel Oil, 1 Minute, 25° C., aminoazotoluene dyes (Table 7)
[21] = No. 2 Fuel Oil, 10 Minutes, 25° C., aminoazotoluene dyes (Table 7)
[22] = No. 2 Fuel Oil, 20 Minutes, 25° C., aminoazotoluene dyes (Table 7)
[23] = No. 1 Fuel Oil, 20 Minutes, 25° C., aminoazobenzene dyes (Table 4)
[24] = No. 2 Fuel Oil, 20 Minutes, 25° C., aminoazobenzene dyes (Table 5)

SMILES: CCCCC(CC)COCCCNc1ccc2ccccc2c1N=Nc1cc(C)c(N=Nc2ccccc2C)cc1C (stereo not drawn) [Example 10]
- Solubility (% by Wt.) ([1]; 20° C.-25° C. (Table 12)): 36.3 % by Wt.
- Solubility (% by Wt.) ([1]; -10° C. (Table 12)): 20.8 % by Wt.
- behavior of dye-fuel oil mixture on cooling/storage [2]: displayed some separation of dye upon lengthy storage
- Physical State of Dye at 20° C. [3]: Tar
- Solubility (% by Wt.) [4, 9]: 29.5 % by Wt.
- Solubility (% by Wt.) [4, 10]: 19.8 % by Wt.
- Solubility (% by Wt.) [4, 11]: 29.7 % by Wt.
- Solubility (% by Wt.) [4, 12]: 12.1 % by Wt.
- equilibrium solubilities [5]: exceeded 25 percent by weight

SMILES: CCCCC(CC)CNc1ccc2ccccc2c1N=Nc1ccc(N=Nc2ccccc2)cc1C (stereo not drawn) [Example 3]
- Solubility (% by Wt.) ([1]; 20° C.-25° C. (Table 12)): Complete
- Solubility (% by Wt.) ([1]; -10° C. (Table 12)): Complete
- behavior of dye-fuel oil mixture on cooling/storage [2]: completely soluble and remained soluble at temperatures ranging from -10 °C to 25 °C
- Physical State of Dye at 20° C. [3]: Liquid
- Solubility (% by Wt.) [4, 13]: Complete
- Solubility (% by Wt.) [4, 14]: Complete
- Solubility (% by Wt.) [4, 15]: Complete
- Solubility (% by Wt.) [4, 16]: Complete

SMILES: CCCCC(CC)COCCCNc1ccc2ccccc2c1N=Nc1ccc(N=Nc2ccccc2)cc1C (stereo not drawn) [Example 9]
- Solubility (% by Wt.) ([1]; 20° C.-25° C. (Table 12)): Complete
- Solubility (% by Wt.) ([1]; -10° C. (Table 12)): 38.1 % by Wt.
- behavior of dye-fuel oil mixture on cooling/storage [2]: displayed some separation of dye upon lengthy storage
- Physical State of Dye at 20° C. [3]: Tar
- Solubility (% by Wt.) [4, 9]: 26.6 % by Wt.
- Solubility (% by Wt.) [4, 10]: 9.5 % by Wt.
- Solubility (% by Wt.) [4, 11]: 28.8 % by Wt.
- Solubility (% by Wt.) [4, 12]: 9.5 % by Wt.
- equilibrium solubilities [5]: exceeded 25 percent by weight

SMILES: CCCCC(CC)COCCCNc1ccc2ccccc2c1N=Nc1ccc(N=Nc2ccccc2C)cc1C (stereo not drawn) [Example 7]
- Solubility (% by Wt.) ([1]; 20° C.-25° C. (Table 12)): Complete
- Solubility (% by Wt.) ([1]; -10° C. (Table 12)): 20.8 % by Wt.
- solubility in petroleum fuels (in words) [6]: relatively low solubility in petroleum fuels
- behavior of dye-fuel oil mixture on cooling/storage [2]: precipitated as a solid mass almost immediately upon cooling to 25 °C
- Physical State of Dye at 20° C. [3]: Solid
- Physical State of Dye [3]: Solid
- Percent Dissolved [7, 17]: 6.44%
- Percent Dissolved [7, 18]: 7.41%
- Percent Dissolved [7, 19]: 8.35%
- Percent Dissolved [7, 20]: 6.12%
- Percent Dissolved [7, 21]: 6.85%
- Percent Dissolved [7, 22]: 7.71%
- Solubility (% by Wt.) [4, 9]: 8.3 % by Wt.
- Solubility (% by Wt.) [4, 11]: 7.7 % by Wt.

SMILES: CCNc1ccc2ccccc2c1N=Nc1ccc(N=Nc2ccccc2)cc1 [Solvent Red No. 19]
- behavior of dye-fuel oil mixture on cooling/storage [2]: precipitation occurred immediately
- % by Weight Soluble (At Equilibrium) ([8]; No. 1 Heating Oil): 2.23 % by Weight
- % by Weight Soluble (At Equilibrium) ([8]; No. 1 Premium Diesel): 1.89 % by Weight
- % by Weight Soluble (At Equilibrium) ([8]; No. 2 Heating Oil): 3.41 % by Weight
- % by Weight Soluble (At Equilibrium) ([8]; No. 2 Premium Diesel): 2.30 % by Weight
- % by Weight Soluble (At Equilibrium) ([8]; No. 2 Regular Diesel): 2.63 % by Weight
- % by Weight Soluble (At Equilibrium) ([8]; No. 4 Heating Oil): 5.76 % by Weight

SMILES: CCCCC(CC)COCCCNc1ccc2ccccc2c1N=Nc1ccc(N=Nc2ccccc2)cc1 (stereo not drawn) [Example 8]
- Solubility (% by Wt.) ([1]; 20° C.-25° C. (Table 12)): Complete
- Solubility (% by Wt.) ([1]; -10° C. (Table 12)): Complete
- behavior of dye-fuel oil mixture on cooling/storage [2]: completely soluble and remained soluble at temperatures ranging from -10 °C to 25 °C
- Physical State of Dye at 20° C. [3]: Liquid
- Physical State of Dye ([3]; listed as 27): liquid
- Percent Dissolved [7, 23]: 52.3%
- Percent Dissolved ([7]; No. 1 Fuel Oil, 2 min., aminoazobenzene dyes (Table 4)): 52.3%
- solubility in fuel oils (in words) [7]: exceptionally high solubility
- Percent Dissolved [7, 24]: 52.3%
- Percent Dissolved ([7]; No. 2 Fuel Oil, 2 min., aminoazobenzene dyes (Table 5)): 52.3%
- dissolution in the heating oils [7]: dissolved completely after two minutes contact
- Solubility (% by Wt.) [4, 9]: Complete
- Solubility (% by Wt.) [4, 10]: Complete
- Solubility (% by Wt.) [4, 11]: Complete
- Solubility (% by Wt.) [4, 12]: Complete

SMILES: CCCCC(CC)CNc1ccc2ccccc2c1N=Nc1cc(C)c(N=Nc2ccccc2C)cc1C (stereo not drawn) [Example 4]
- Solubility (% by Wt.) ([1]; 20° C.-25° C. (Table 12)): 50.0 % by Wt.
- Solubility (% by Wt.) ([1]; -10° C. (Table 12)): 25.0 % by Wt.
- behavior of dye-fuel oil mixture on cooling/storage [2]: displayed some separation of dye upon lengthy storage
- Physical State of Dye at 20° C. [3]: Liquid
- Solubility (% by Wt.) [4, 13]: 44.8 % by Wt.
- Solubility (% by Wt.) [4, 15]: 44.1 % by Wt.
- equilibrium solubilities [5]: exceeded 25 percent by weight

SMILES: CCCCC(CC)CNc1ccc2ccccc2c1N=Nc1ccc(N=Nc2ccccc2)cc1 (stereo not drawn) [Example 2]
- Solubility (% by Wt.) ([1]; 20° C.-25° C. (Table 12)): 25.5 % by Wt.
- Solubility (% by Wt.) ([1]; -10° C. (Table 12)): 10.35 % by Wt.
- crystallization from oily solvents ([6]; aromatic solvents, diesel and heating oils): crystallizes from oily solvents, including aromatic solvents, and diesel and heating oils
- behavior of dye-fuel oil mixture on cooling/storage [2]: precipitated as a solid mass almost immediately upon cooling to 25 °C
- Physical State of Dye at 20° C. [3]: Solid
- Physical State of Dye [3]: Solid
- Percent Dissolved ([7]; No. 1 Fuel Oil, 1 Minute, 25° C., aminoazobenzene dyes (Table 4)): 3.43%
- Percent Dissolved ([7]; No. 1 Fuel Oil, 10 Minutes, 25° C., aminoazobenzene dyes (Table 4)): 3.87%
- Percent Dissolved [7, 23]: 4.47%
- Percent Dissolved ([7]; No. 2 Fuel Oil, 1 Minute, 25° C., aminoazobenzene dyes (Table 5)): 4.63%
- Percent Dissolved ([7]; No. 2 Fuel Oil, 10 Minutes, 25° C., aminoazobenzene dyes (Table 5)): 4.90%
- Percent Dissolved [7, 24]: 5.13%
- Solubility (% by Wt.) [4, 13]: 4.4 % by Wt.
- Solubility (% by Wt.) [4, 15]: 5.1 % by Wt.

SMILES: CCCCC(CC)CNc1ccc2ccccc2c1N=Nc1ccc(N=Nc2ccccc2C)cc1C (stereo not drawn) [Example 1]
- Solubility (% by Wt.) ([1]; 20° C.-25° C. (Table 12)): Complete
- Solubility (% by Wt.) ([1]; -10° C. (Table 12)): Complete
- behavior of dye-fuel oil mixture on cooling/storage [2]: completely soluble and remained soluble at temperatures ranging from -10 °C to 25 °C
- Physical State of Dye at 20° C. [3]: Liquid
- Physical State of Dye ([3]; listed as 38): liquid dye
- Percent Dissolved [7, 19]: 58.0%
- Percent Dissolved ([7]; No. 1 Fuel Oil, 2 min, aminoazotoluene dyes (Table 6)): 58.0%
- solubility in fuel oils (in words) [7]: exceptionally high solubility
- Percent Dissolved [7, 22]: 55.3%
- Percent Dissolved ([7]; No. 2 Fuel Oil, 2 min, aminoazotoluene dyes (Table 7)): 55.3%
- dissolution in the heating oils [7]: dissolved completely after two minutes contact
- Solubility (% by Wt.) [4, 13]: Complete
- Solubility (% by Wt.) [4, 14]: Complete
- Solubility (% by Wt.) [4, 15]: Complete
- Solubility (% by Wt.) [4, 16]: Complete

SMILES: CCCCCCCCCCNc1ccc2ccccc2c1N=Nc1ccc(N=Nc2ccccc2C)cc1C [Example 39]
- Physical State of Dye [3]: Solid
- Percent Dissolved [7, 17]: 1.09%
- Percent Dissolved [7, 18]: 1.13%
- Percent Dissolved [7, 19]: 1.14%
- Percent Dissolved [7, 20]: 1.30%
- Percent Dissolved [7, 21]: 1.37%
- Percent Dissolved [7, 22]: 1.48%
